Assay results as given in patent publication US9029386B2, “Pyridine derivatives useful as kinase inhibitors” (YM Biosciences Australia Pty Ltd, priority 2006, dated 2015).

Experiments:
Assay type in all cases: biochemical
[1] = molecular target: T1, Ret(h) (Homo sapiens, UniProt P07949); assay: KinaseProfiler assay (Upstate), Ret
T1 construct: purchased Upstate Biotechnology (Dundee, UK), KinaseProfiler service
Method: (§1) Further enzyme assays were conducted at Upstate Biotechnology (Dundee, UK) in the KinaseProfiler™ Assay system.
(§2) The general protocol is as follows. All kinases are pre-diluted to a 10× working concentration prior to addition into the assay. The composition of the dilution buffer for the kinases is 20 mM MOPS pH 7.0, 1 mM EDTA, 0.1% β-mercaptoethanol, 0.01% Brij-35, 5% glycerol, 1 mg/ml BSA. All substrates are dissolved and diluted to working stocks in de-ionised water.
In a final reaction volume of 25 μl, Ret (h) (5-10 mU) is incubated with 8 mM MOPS pH 7.0, 0.2 mM EDTA, 250 μM […], 10 mM MgAcetate and [γ-33P-ATP] (specific activity approx. 500 cpm/pmol, concentration as required). The reaction is initiated by the addition of the MgATP mix. After incubation for 40 minutes at room temperature, the reaction is stopped by the addition of 5 μl of a 3% phosphoric acid solution. 10 μl of the reaction is then spotted onto a P30 filtermat and washed three times for 5 minutes in 75 mM phosphoric acid and once in methanol prior to drying and scintillation counting.

[2] = molecular target: T2, cSRC(h) (Homo sapiens, UniProt P12931); assay: KinaseProfiler assay (Upstate), cSRC
T2 construct: purchased Upstate Biotechnology (Dundee, UK), KinaseProfiler service
Method: as §1, §2

[3] = molecular target: T3, EphA3(h) (Homo sapiens, UniProt P29320); assay: KinaseProfiler assay (Upstate), EphA3
T3 construct: purchased Upstate Biotechnology (Dundee, UK), KinaseProfiler service
T3 sequence (P29320 21-983): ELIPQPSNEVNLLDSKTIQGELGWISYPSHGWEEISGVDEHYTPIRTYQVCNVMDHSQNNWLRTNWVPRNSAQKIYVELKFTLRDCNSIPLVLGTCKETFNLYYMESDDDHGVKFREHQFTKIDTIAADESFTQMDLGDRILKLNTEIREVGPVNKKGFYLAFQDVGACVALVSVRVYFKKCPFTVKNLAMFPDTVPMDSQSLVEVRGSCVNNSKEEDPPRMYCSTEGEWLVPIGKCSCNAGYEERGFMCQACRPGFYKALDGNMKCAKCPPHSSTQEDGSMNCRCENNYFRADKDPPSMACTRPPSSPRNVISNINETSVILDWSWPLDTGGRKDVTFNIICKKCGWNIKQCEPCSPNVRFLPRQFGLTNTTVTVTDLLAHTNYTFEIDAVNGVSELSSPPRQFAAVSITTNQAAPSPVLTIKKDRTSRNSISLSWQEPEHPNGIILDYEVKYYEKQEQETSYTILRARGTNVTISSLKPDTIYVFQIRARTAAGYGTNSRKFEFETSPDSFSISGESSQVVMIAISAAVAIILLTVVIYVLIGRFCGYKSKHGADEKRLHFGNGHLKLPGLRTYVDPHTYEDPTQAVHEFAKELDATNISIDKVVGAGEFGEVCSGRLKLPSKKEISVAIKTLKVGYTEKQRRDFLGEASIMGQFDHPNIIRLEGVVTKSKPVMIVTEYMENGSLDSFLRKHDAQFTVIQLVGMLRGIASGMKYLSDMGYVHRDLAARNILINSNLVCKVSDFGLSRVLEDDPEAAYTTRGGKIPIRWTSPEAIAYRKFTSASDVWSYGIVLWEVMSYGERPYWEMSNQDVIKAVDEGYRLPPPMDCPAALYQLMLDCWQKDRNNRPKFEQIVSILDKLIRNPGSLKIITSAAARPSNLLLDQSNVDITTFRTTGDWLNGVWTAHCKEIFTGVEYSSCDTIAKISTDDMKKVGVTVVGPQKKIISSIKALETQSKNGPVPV
Method: as §1, §2
In a final reaction volume of 25 EphA3 (h) (5-10 mU) is incubated with 8 mM MOPS pH 7.0, 0.2 mM EDTA, 0.1 mg/ml poly(Glu, Tyr) 4:1, 10 mM MgAcetate and [γ-33P-ATP] (specific activity approx. 500 cpm/pmol, concentration as required). The reaction is initiated by the addition of the MgATP mix. After incubation for 40 minutes at room temperature, the reaction is stopped by the addition of 5 μl of a 3% phosphoric acid solution. 10 μl of the reaction is then spotted onto a Filtermat A and washed three times for 5 minutes in 75 mM phosphoric acid and once in methanol prior to drying and scintillation counting.

[4] = molecular target: T4, kinase domain of human CSF1-R (Homo sapiens, UniProt P07333); assay: Alphascreen protein tyrosine kinase assay, CSF-1R
T4 construct: from codon I553 to Q961; made in house; host or cells: Sf9 insect cells (baculovirus)
T4 sequence (P07333 553-961): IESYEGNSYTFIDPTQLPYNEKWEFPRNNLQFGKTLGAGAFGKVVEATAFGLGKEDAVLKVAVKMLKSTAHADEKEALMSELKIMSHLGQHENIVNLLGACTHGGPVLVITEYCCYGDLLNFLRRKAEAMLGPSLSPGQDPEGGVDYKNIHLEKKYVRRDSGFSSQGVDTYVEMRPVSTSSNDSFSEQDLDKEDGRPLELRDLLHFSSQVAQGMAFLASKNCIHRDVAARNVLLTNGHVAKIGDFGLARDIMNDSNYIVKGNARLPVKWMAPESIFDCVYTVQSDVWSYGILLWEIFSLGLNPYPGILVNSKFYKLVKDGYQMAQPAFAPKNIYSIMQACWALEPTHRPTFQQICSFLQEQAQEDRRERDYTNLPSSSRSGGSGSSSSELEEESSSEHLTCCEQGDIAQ
Method: For screening purposes, compounds were diluted in 96 well plates at a concentration of 20 μM. Plates were warmed at 37° C. for 30 minutes before assay.
The kinase domain of human CSF1-R from codon I553 to Q961 was cloned into the pDEST-20 expression vector (Invitrogen). The CSF1-R plasmid was then transformed into competent DH10Bac cells (Gibco), and the recombinant baculovirus produced prepared for transfection into Sf9 insect cells.
Baculovirus preparations from each of construct were infected into five liters of SF9 cells (Invitrogen) grown in SF-900 medium (Invitrogen) to a cell density of approximately 1−2×10^6 cells/ml. […] Cells were harvested and lysed. Tyrosine kinase domains were purified by affinity chromatography on a glutathione-agarose column (Scientifix Pty. Ltd. catalog #: GSH-200).
Kinase assays were performed in 384 well Optiplates (Packard) using an Alphascreen Protein Tyrosine Kinase kit. […] Alphascreen phosphotyrosine acceptor beads followed by streptavidin donor beads were added under subdued light. The Alphascreen plates were read on a Packard Fusion Alpha. Inhibitors were added to the assays thirty minutes prior to the addition of ATP. Inhibitors were added in aqueous DMSO, with DMSO concentrations never exceeding 1%.

T2 sequence (P12931 whole entry): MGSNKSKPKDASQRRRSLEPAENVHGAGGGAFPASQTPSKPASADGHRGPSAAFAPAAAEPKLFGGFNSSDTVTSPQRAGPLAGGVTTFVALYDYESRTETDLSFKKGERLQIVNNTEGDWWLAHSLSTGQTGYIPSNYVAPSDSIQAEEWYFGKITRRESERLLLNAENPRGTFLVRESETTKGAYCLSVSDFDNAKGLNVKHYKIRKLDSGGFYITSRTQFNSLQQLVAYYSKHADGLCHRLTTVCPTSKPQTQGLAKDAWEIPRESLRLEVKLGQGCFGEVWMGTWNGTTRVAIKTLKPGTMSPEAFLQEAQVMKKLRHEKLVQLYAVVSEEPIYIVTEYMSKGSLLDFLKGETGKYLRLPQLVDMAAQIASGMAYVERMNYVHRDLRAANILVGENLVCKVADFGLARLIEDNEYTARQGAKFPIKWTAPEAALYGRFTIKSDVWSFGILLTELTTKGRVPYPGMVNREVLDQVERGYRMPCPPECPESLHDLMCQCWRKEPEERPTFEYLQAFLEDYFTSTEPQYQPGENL
T1 sequence (P07949 29-1114): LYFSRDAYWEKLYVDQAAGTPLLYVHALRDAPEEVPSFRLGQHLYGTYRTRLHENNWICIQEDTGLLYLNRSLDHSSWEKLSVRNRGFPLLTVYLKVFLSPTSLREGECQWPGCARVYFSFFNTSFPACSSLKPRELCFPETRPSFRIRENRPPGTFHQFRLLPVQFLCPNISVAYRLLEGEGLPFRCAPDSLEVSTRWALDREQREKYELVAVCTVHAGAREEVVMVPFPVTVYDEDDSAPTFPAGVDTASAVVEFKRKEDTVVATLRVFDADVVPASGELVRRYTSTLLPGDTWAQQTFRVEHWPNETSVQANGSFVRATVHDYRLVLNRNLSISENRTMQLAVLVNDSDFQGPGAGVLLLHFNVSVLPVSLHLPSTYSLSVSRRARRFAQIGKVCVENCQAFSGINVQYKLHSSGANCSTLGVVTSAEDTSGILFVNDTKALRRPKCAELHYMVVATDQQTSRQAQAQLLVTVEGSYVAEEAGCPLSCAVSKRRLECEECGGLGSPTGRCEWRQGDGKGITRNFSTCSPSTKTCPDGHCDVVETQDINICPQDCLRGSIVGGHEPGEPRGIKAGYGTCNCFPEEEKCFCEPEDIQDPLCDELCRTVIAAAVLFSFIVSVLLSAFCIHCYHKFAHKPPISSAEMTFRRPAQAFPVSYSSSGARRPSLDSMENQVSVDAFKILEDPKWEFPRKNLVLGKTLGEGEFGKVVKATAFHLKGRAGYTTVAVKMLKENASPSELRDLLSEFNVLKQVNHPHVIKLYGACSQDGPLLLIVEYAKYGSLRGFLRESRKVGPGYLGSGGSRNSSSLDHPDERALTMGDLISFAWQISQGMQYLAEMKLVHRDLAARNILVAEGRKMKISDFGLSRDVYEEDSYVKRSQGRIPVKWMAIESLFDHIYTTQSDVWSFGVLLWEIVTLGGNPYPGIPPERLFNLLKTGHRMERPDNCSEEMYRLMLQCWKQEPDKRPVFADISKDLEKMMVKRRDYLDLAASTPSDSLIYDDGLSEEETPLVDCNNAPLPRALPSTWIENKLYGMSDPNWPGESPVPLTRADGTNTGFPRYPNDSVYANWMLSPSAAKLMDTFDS

SMILES | inhibition at 0.1 µM [1] [%] | inhibition at 1 µM [1] [%] | inhibition at 0.1 µM [2] [%] | inhibition at 1 µM [2] [%] | inhibition at 0.1 µM [3] [%] | inhibition at 1 µM [3] [%] | IC50 [4] [nM]
Cc1cccc(C(=O)Nc2cccc([C@H](C)Nc3cncc(-c4ccc(S(N)(=O)=O)cc4)n3)c2)c1 [Compound 77] | 22 | 67 | 23 | 74 | 17 | 70 | < 100
Cc1cccc(C(=O)Nc2cccc([C@H](C)Nc3cncc(-n4ccnc4)n3)c2)c1 [Compound 143, (S)—N-(3-(1-(6-(1H-imidazol-1-yl)pyrazin-2-ylamino)ethyl)phenyl)-3-methylbenzamide] | 8 | 58 | 14 | 65 | 0 | 58 | < 100
Cc1cccc(C(=O)Nc2cccc([C@H](C)Nc3cncc(-c4ccc(N5CCN(C)CC5)cc4)n3)c2)c1 [Compound 129] | 19 | 75 | 38 | 85 | 18 | 76 | < 100
Cc1cccc(C(=O)Nc2ccc(C)c([C@H](C)Nc3cncc(Cl)n3)c2)c1 [Compound 168] | 39 | 95 | 53 | 95 | 69 | 98 | –
Cc1cccc(C(=O)Nc2cccc([C@H](C)Nc3cncc(-c4cccc(N5CCOCC5)c4)n3)c2)c1 [Compound 147] | 68 | 92 | 45 | 87 | 44 | 91 | < 100

Continued, values first:

inhibition at 0.1 µM [1] [%] | inhibition at 1 µM [1] [%] | inhibition at 0.1 µM [2] [%] | inhibition at 1 µM [2] [%] | inhibition at 0.1 µM [3] [%] | inhibition at 1 µM [3] [%] | IC50 [4] [nM] | SMILES
66 | 95 | 24 | 80 | 24 | 92 | – | C[C@H](Nc1cncc(Cl)n1)c1cccc(NC(=O)c2cccc(C(F)(F)F)c2)c1 [Compound 114, (S)—N-(3-(1-(6-chloropyrazin-2-ylamino)ethyl)phenyl)-3-(trifluoromethyl)benzamide]
89 | 96 | 69 | 96 | 46 | 94 | < 100 | C[C@H](Nc1cncc(-c2cccc(N3CCOCC3)c2)n1)c1cccc(NC(=O)c2cccc(C(F)(F)F)c2)c1 [Compound 149]
1 | 36 | 1 | 14 | -4 | 34 | < 100 | Cc1cccc(C(=O)Nc2cccc([C@H](C)Nc3cncc(C(N)=O)n3)c2)c1 [Compound 133, (S)-6-(1-(3-(3-methylbenzamido)phenyl)ethylamino)pyrazine-2-carboxamide]
89 | 96 | 86 | 96 | 79 | 99 | < 100 | C[C@H](Nc1cncc(-c2ccc(N3CCN(C)CC3)cc2)n1)c1cccc(NC(=O)c2cccc(C(F)(F)F)c2)c1 [Compound 148]
